Measurements as given in patent EP4717691A1, “USE OF BMPR1B INHIBITOR IN INDUCED DEVELOPMENT, AND INDUCTION CULTURE MEDIUM” (Iregene Therapeutics Co., Ltd, priority 2023, dated 2024).

What was measured:
[1] = test system: pluripotent stem cell H9; experiment: Neural induction of H9 cells, marker gene mRNA by RNA-seq; assay type: cell-based, human; settings: H9, increasing concentrations, day 7 and day 14, P < 0.05 t-test
Experimental: (§1) The induction medium comprises Dulbecco's Modified Eagle Medium (DMEM), Minimum Essential Medium Non-Essential Amino Acids (MEM NEAA, Cat. No. 11140076, Thermo Fisher), 4-Hydroxy-TEMPO (50 µM), D(+)-galactose (12.5 µg/mL), vitamin E (1 µg/mL), vitamin B12 (1.2 µM), vitamin C (64 mg/L), progesterone (6.3 ng/mL), 1,4-butanediamine (23 µg/mL), luteolin (60 µM), sodium chloride (0.5 g/L), […] (13.6 µg/L), insulin (22 µg/mL), recombinant human transferrin (100 ng/mL), and the BMPR1B inhibitor of the present invention (induction medium A uses BMPR1B inhibitor II-1; induction medium B uses BMPR1B inhibitor II-13).
(§2) Commercial human pluripotent stem cell lines H1, H9, and induced pluripotent stem cells (iPSCs) were used. The iPSCs were prepared according to the "reprogramming medium for the culture of reprogrammed iPSCs" using CD34+ cells (CN109628383A, Example 2). T25 culture flasks were coated with Matrigel (STEMCELL Technologies) and incubated at 37°C for at least one hour. Cells were seeded at 1 × 10^6 per T25 flask for expansion and passaging.
(§3) 6-well plates were coated with 50 µg/mL poly-L-lysine (SIGMA, Cat. No. P6407) and incubated at 37°C for at least 3 hours, followed by coating with 5 µg/mL laminin (SIGMA ALDRICH, Cat. No. 12020) and further incubation at 37°C for at least 3 hours. […]

[2] = biological target: BMPR1B kinase (Homo sapiens, UniProt O00238); experiment: Kinase activity screening (330 kinases, HTRF or ADP-Glo); assay type: biochemical; settings: compound 2.5 mM, 25 nL in DMSO added to 5 µL reaction; Figure 1A
Experimental: (§4) A total of 330 kinase candidates (15-50 nM, 2.5 µL) were mixed with compound II-1 (2.5 mM, 25 nL, prepared in DMSO) and incubated at 25 °C for 10 minutes. Then, a mixture of kinase peptide substrate (0.2 mg/mL; supplier: GenScript) and ATP (10-60 µM; supplier: Promega; product number: V915B) was added (total 2.5 µL, prepared in assay buffer), and the reaction was carried out at 25 °C for 60-120 minutes. Finally, the reaction products were quantified using HTRF1 or ADP-Glo2 methods. During the kinase activity assay, the consumption of each substrate was kept below 10%, and each kinase assay was performed in duplicate.

[3] = test system: SMAD1/5/8; experiment: Western blot of BMP signaling pathway in H1 cells; assay type: cell-based, human; settings: 6 µL of 30 µM compound in 2 mL, within 24 hours of treatment, Figure 3
Experimental: (§5) The inhibitory effect of the pyrazolecarbonyl piperazinone compounds on the BMP signaling pathway was further validated by Western blot analysis. Commercial human pluripotent stem cell line H1 was seeded in a 6-well plate at 1.5 × 10^6 cells per well in 2 mL of culture medium. After one day of culture, the medium was replaced, and 6 µL of 30 µM pyrazolecarbonyl piperazinone compound II-1 was added. Cells were treated for 12, 24, and 36 hours, after which the cells were harvested and protein samples were prepared according to the instructions of a commercial kit (Beyotime Biotechnology; Cat. No. P0013). Western blot analysis was performed as described in the literature (H. Zhang et al., 2022; N. Zhang et al., 2021). […] Table 2. Antibody Information

[4] = test system: SMAD2/3; experiment: Western blot of TGF signaling pathway in H1 cells; assay type: cell-based, human; settings: 6 µL of 30 µM compound in 2 mL, within 24 hours of treatment, Figure 3
Experimental: as §5

[5] = biological target: T1, TGFBR1 (Homo sapiens, UniProt P36897); experiment: Kinase activity assay (HTRF or ADP-Glo); assay type: biochemical
T1 sequence (P36897 34-503): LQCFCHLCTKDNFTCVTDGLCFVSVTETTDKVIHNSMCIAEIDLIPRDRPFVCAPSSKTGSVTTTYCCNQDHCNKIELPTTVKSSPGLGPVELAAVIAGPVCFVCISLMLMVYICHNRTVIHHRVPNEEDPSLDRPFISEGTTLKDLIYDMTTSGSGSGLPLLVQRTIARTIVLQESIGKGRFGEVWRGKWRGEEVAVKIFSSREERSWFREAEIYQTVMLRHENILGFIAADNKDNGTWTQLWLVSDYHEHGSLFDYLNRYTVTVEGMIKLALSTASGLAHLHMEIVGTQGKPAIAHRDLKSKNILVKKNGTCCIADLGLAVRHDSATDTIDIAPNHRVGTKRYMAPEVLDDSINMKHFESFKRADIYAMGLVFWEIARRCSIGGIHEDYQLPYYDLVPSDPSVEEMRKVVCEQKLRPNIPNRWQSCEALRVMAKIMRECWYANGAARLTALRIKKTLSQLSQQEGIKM
Experimental: as §4

[6] = biological target: T2, BMPR2 (Homo sapiens, UniProt Q13873); experiment: Kinase activity assay (HTRF or ADP-Glo); assay type: biochemical
T2 sequence (Q13873 27-1038): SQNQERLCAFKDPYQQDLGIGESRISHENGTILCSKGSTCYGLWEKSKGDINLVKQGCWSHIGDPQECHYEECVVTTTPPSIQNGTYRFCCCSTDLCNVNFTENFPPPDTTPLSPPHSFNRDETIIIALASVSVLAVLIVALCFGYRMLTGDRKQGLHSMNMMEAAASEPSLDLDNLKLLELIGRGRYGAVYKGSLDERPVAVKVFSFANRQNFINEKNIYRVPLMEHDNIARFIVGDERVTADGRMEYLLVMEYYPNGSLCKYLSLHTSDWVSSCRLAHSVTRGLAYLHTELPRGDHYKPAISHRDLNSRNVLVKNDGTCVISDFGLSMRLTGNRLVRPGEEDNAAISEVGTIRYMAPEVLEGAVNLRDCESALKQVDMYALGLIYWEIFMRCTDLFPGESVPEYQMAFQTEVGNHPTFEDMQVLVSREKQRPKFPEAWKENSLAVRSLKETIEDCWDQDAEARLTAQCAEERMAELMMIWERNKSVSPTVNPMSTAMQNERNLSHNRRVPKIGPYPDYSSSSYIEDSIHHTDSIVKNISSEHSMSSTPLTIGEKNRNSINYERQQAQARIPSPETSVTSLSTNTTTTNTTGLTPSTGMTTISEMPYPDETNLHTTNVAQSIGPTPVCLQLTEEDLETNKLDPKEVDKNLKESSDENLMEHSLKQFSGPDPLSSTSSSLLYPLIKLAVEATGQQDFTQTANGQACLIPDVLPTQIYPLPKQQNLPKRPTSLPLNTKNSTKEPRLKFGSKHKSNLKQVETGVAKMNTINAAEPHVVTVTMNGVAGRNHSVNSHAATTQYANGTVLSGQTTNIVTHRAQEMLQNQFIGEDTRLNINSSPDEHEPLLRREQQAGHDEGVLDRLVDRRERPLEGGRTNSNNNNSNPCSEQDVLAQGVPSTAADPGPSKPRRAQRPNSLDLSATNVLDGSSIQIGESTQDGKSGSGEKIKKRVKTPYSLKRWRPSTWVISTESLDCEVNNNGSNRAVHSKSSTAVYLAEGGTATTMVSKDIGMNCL
Experimental: as §4

[7] = test system: H1 cells; experiment: Neural induction of H1 cells, marker gene mRNA by RNA-seq; assay type: cell-based, human; settings: H1, increasing concentrations, day 7 and day 14; Figure 5
Experimental: as §1, §2, §3

[8] = test system: induced pluripotent stem cells (iPSCs); experiment: Neural induction of iPSCs, marker gene mRNA by RNA-seq; assay type: cell-based, human; settings: iPSCs vs untreated control, day 7 and day 14, dose-dependent; Figure 6
Experimental: as §1, §2
6-well plates were coated with 50 µg/mL poly-L-lysine (SIGMA, Cat. No. P6407) and incubated at 37°C for at least 3 hours, followed by coating with 5 µg/mL laminin (SIGMA ALDRICH, Cat. No. 12020) and further incubation at 37°C for at least 3 hours. When pluripotent stem cells reached 70% confluency, they were digested with EDTA at 37°C for 5 minutes, and digestion was terminated using DMEM. Cells were washed, centrifuged, and reseeded in T25 flasks at 2 × 10^5 cells per flask. Induction was carried out using the aforementioned induction media: H9 cells were induced with induction medium A, while H1 cells and iPSCs were induced with induction medium B. The medium was refreshed daily until day 14.
Samples were collected on day 7 and day 14 of induction. RNA was processed using the VAHTS Universal V8 RNA-seq Library Prep Kit for Illumina (Vazyme, NR605-01/02), and sequencing was performed on an Illumina platform. […]

[9] = at the same concentration as the screen
[10] = different concentrations, up to 12.5 µM, threefold serial dilution, Figure 1B, C

BMPR1B kinase, sequence (O00238 14-502): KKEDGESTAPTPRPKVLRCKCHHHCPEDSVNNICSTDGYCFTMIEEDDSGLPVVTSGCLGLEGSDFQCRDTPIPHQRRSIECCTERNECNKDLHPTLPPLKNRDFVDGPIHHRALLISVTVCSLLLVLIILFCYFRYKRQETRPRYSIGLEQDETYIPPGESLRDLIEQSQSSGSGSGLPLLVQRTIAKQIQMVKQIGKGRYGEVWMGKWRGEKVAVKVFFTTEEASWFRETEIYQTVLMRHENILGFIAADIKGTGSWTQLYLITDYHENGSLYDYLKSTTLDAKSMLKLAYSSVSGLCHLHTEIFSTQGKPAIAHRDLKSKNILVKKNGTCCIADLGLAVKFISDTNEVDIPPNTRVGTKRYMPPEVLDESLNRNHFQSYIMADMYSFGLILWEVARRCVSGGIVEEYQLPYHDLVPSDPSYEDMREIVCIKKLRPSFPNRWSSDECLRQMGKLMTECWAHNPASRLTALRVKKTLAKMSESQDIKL

| inhibitory activity against BMPR1B kinase [2] | inhibition of kinase activity of TGFBR1 [5, 9] | inhibition of TGFBR1 kinase [5, 10] | inhibition of kinase activity of BMPR2 [6, 9] | inhibition of BMPR2 kinase [6, 10] | SMILES | neural progenitor marker PAX6 expression [1] | pluripotency marker NANOG expression [1] | phosphorylation levels of SMAD1/5/8 [3] | phosphorylation of SMAD2/3 [4] | glial progenitor marker gene Sox9 expression [7] | neural marker gene MAP2 expression [7] | neural differentiation marker VIM expression [8] | neural progenitor marker Sox1 expression [8] | neural progenitor marker Sox5 expression [8] |
| --- | --- | --- | --- | --- | --- | --- | --- | --- | --- | --- | --- | --- | --- | --- |
| significant inhibitory activity | did not inhibit | no inhibition | did not inhibit | no inhibition | O=C1CN(C(=O)c2n[nH]c3c2CCC3)[C@H]2CCCC[C@@H]2N1 [II-1, (4aS,8aS)-4-(1,4,5,6-tetrahydrocyclopenta[c]pyrazole-3-carbonyl)octahydroquinoxalin-2(1H)-one] | corresponding increase | dose-dependent decrease | significantly suppressed | did not inhibit |  |  |  |  |  |
|  |  |  |  |  | O=C1CN(C(=O)c2n[nH]c3ccccc23)[C@H]2CCCC[C@@H]2N1 [II-13, (4aS,8aS)-4-(1H-indazole-3-carbonyl)octahydroquinoxalin-2(1H)-one] |  |  |  |  | dose-dependent response | dose-dependent response | significantly increased expression | significantly increased expression | significantly increased expression |
